Laboratory results: patent US12428406B2 (PMV Pharmaceuticals, Inc., priority 2019, dated 2025)

Target: T1, p53 Y220C (Homo sapiens, UniProt P04637, Y220C)
T1 construct: The recombinant protein was a truncation mutant containing only amino acids 94-312 of p53; made in house; host or cells: E. coli
Assay: In vitro DNA binding activity assay (HTRF / TR-FRET): stabilization of p53 Y220C and increase of its DNA binding activity
Assay type: biochemical
Details: recombinant His-tagged p53 Y220C DNA binding domain (aa 94-312), biotin-labeled consensus DNA, incubated at 27° C. or 29° C. for 60 min
Procedure, shortened: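 Test compounds, diluted 3-fold in DMSO from 4.5 mM stocks, were incubated with bacterially expressed His-tagged p53 Y220C at room temperature for 15 min, and after a further step for 20 min. DNA binding was detected by time-resolved FRET between APC and europium labels. SC150 marks the concentration increasing binding by 50%.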

T1 sequence (P04637 94-312, change not shown): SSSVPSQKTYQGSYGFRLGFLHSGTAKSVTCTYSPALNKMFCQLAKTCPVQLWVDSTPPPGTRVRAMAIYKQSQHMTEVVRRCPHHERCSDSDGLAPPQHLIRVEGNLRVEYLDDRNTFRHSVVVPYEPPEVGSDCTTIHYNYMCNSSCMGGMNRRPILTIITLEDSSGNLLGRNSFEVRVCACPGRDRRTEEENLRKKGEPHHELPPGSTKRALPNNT

SMILES | SC150 (concentration of the compound required to increase the DNA binding activity by 50%)
COc1cc(S(C)(=O)=O)ccc1NCC#Cc1cc2c(NC3CCN(C[C@@H]4COC(C)(C)O4)CC3)cccc2n1CC(F)(F)F [Compound 566A, N-(1-{[(4R)-2,2-dimethyl-1,3-dioxolan-4-yl]methyl}piperidin-4-yl)-2-{3-[(4-methanesulfonyl-2-methoxyphenyl)amino]prop-1-yn-1-yl}-1-(2,2,2-trifluoroethyl)-1H-indol-4-amine] | + (+ = 0 μM ≤ SC150 < 0.05 μM)
COc1cc(S(C)(=O)=O)ccc1NCC#Cc1cc2c(N[C@H]3CC[C@H](N4CCOCC4)CC3)cccc2n1CC(C)C [Compound 179A, 2-{3-[(4-methane-sulfonyl-2-methoxy-phenyl)amino]prop-1-yn-1-yl}-1-(2-methyl-propyl)-N-[(1R,4R)-4-(morpholin-4-yl)cyclohexyl]-1H-indol-4-amine] | ++ (++ = 0.05 μM ≤ SC150 < 0.1 μM)
CNC(=O)c1ccc(NCC#Cc2cc3c(N[C@H]4CC[C@H](N5CC6(COC6)C5)CC4)cccc3n2CC(F)(F)F)c(OCCOC)c1 [Compound 236A, 3-(2-methoxyethoxy)-N-methyl-4-{[3-(4-{[(1R,4R)-4-{2-oxa-6-azaspiro[3.3]heptan-6-yl}cyclohexyl]amino}-1-(2,2,2-trifluoroethyl)-1H-indol-2-yl)prop-2-yn-1-yl]amino} benzamide] | + (+ = 0 μM ≤ SC150 < 0.05 μM)
Cc1cc(S(C)(=O)=O)ccc1NCC#Cc1cc2c(N[C@H]3CC[C@H](N4CC5(COC5)C4)CC3)cccc2n1CC(F)(F)F [Compound 283A, 2-{3-[(4-methanesulfonyl-2-methylphenyl)amino]prop-1-yn-1-yl}-N-[(1R,4R)-4-{2-oxa-6-azaspiro[3.3]heptan-6-yl}cyclohexyl]-1-(2,2,2-trifluoroethyl)-1H-indol-4-amine] | + (+ = 0 μM ≤ SC150 < 0.05 μM)
COc1cc(C(N)=O)ccc1NCC#Cc1cc2c(N[C@H]3CCO[C@@H](C)C3)cccc2n1CC(F)(F)F [Compound 1021A, 3-methoxy-4-{[3-(4-{[(2S,4S)-2-methyloxan-4-yl]amino}-1-(2,2,2-trifluoroethyl)-1H-indol-2-yl)prop-2-yn-1-yl]amino}benzamide] | + (+ = 0 μM ≤ SC150 < 0.05 μM)
CNC(=O)c1ccc(NCC#Cc2cc3c(NC4CCN(CC(O)COC)CC4)cccc3n2CC(F)(F)F)c(OCC#N)c1 (stereo not shown) [Compound 654A, 3-(cyanomethoxy)-4-{[3-(4-{[1-(2-hydroxy-3-methoxypropyl)piperidin-4-yl]amino}-1-(2,2,2-trifluoroethyl)-1H-indol-2-yl)prop-2-yn-1-yl]amino}-N-methylbenzamide] | + (+ = 0 μM ≤ SC150 < 0.05 μM)
CN1CC[C@@H](Nc2cccc3c2cc(C#CCNC(=O)c2ccn(C)c2)n3CC(F)(F)F)[C@@H](F)C1 [Compound 953A, N-[3-(4-{[(3S,4R)-3-fluoro-1-methylpiperidin-4-yl]amino}-1-(2,2,2-trifluoroethyl)-1H-indol-2-yl)prop-2-yn-1-yl]-1-methyl-1H-pyrrole-3-carboxamide] | + (+ = 0 μM ≤ SC150 < 0.05 μM)
CNC(=O)c1ccc(NCC#Cc2cc3c(N[C@H]4CC[C@H](N(C)C)CC4)cccc3n2CC(F)(F)F)c(OCCF)c1 [Compound 104A, 3-(2-fluoroethoxy)-N-methyl-4-{[3-(4-{[(1R,4R)-4-(dimethyl-amino)cyclohexyl]amino}-1-(2,2,2-trifluoro-ethyl)-1H-indol-2-yl)prop-2-yn-1-yl]amino}benzamide] | + (+ = 0 μM ≤ SC150 < 0.05 μM)
COc1cc(S(=O)(=O)N(C)C)ccc1NCC#Cc1cc2c(NC3CCS(=O)(=O)CC3)cccc2n1CC(F)(F)F [Compound 1044A, 4-[(3-{4-[(1,1-dioxo-1λ^6-thian-4-yl)amino]-1-(2,2,2-trifluoroethyl)-1H-indol-2-yl}prop-2-yn-1-yl)amino]-3-methoxy-N,N-dimethylbenzene-1-sulfonamide] | + (+ = 0 μM ≤ SC150 < 0.05 μM)
COc1cc(S(=O)(=O)Nc2ccon2)ccc1NCC#Cc1cc2c(N[C@H]3CC[C@H](N(C)C)CC3)cccc2n1CC(F)(F)F [Compound 48A, 3-methoxy-N-(1,2-oxazol-3-yl)-4-{[3-(4-{[(1R,4R)-4-(dimethylamino)cyclo-hexyl]amino}-l-(2,2,2-trifluoroethyl)-1H-indol-2-yl)prop-2-yn-1-yl]amino}benzene-1-sulfonamide] | + (+ = 0 μM ≤ SC150 < 0.05 μM)
COc1cc(S(C)(=O)=O)ccc1NCC#Cc1cc2c(NC3CC4(COC4)C3)cccc2n1CC(F)(F)F [Compound 20A, 2-{3-[(4-methane-sulfonyl-2-methoxy-phenyl)amino]prop-1-yn-1-yl}-N-{2-oxaspiro[3.3]heptan-6-yl}-1-(2,2,2-trifluoroethyl)-1H-indol-4-amine] | + (+ = 0 μM ≤ SC150 < 0.05 μM)
COc1cc(S(C)(=O)=O)ccc1NCC#Cc1cc2c(NC3CCC4(CC3)OCCO4)cccc2n1CC(F)(F)F [Compound 64A, N-{1,4-dioxaspiro[4.5]decan-8-yl}-2-{3-[(4-methane-sulfonyl-2-methoxy-phenyl)amino]prop-1-yn-1-yl}-1-(2,2,2-trifluoroethyl)-1H-indol-4-amine] | + (+ = 0 μM ≤ SC150 < 0.05 μM)
CN(C)[C@H]1CC[C@@H](Nc2cccc3c2cc(C#CCNc2ccc(S(C)(=O)=O)cc2OCC(F)(F)F)n3CC(F)(F)F)CC1 [Compound 93A, (1S,4S)-N^4-[2-(3-{[4-methanesulfonyl-2-(2,2,2-trifluoroethoxy)phenyl]amino}prop-1-yn-1-yl)-1-(2,2,2-trifluoro-ethyl)-1H-indol-4-yl]-N^1,N^1-dimethylcyclo-hexane-1,4-diamine] | + (+ = 0 μM ≤ SC150 < 0.05 μM)
COc1cc(S(N)(=O)=O)ccc1NCC#Cc1cc2c(N[C@H]3CC[C@H](N4CC(S(C)(=O)=O)C4)CC3)cccc2n1CC(F)(F)F [Compound 190A, 3-methoxy-4-{[3-(4-{[(1R,4R)-4-(3-methanesulfonyl-azetidin-1-yl)cyclo-hexyl]amino}-1-(2,2,2-trifluoroethyl)-1H-indol-2-yl)prop-2-yn-1-yl]amino}benzene-1-sulfonamide] | + (+ = 0 μM ≤ SC150 < 0.05 μM)
CCNC(=O)c1ccc(NCC#Cc2cc3c(N[C@H]4CC[C@H](N(C)CCOC)CC4)cccc3n2CC(F)(F)F)c(OC)c1 [Compound 153A, N-ethyl-3-methoxy-4-((3-(4-((4-((2-methoxyethyl)(methyl)amino)cyclohexyl)amino)-1-(2,2,2-trifluoroethyl)-1H-indol-2-yl)prop-2-yn-1-yl)amino)benzamide] | + (+ = 0 μM ≤ SC150 < 0.05 μM)
CNC(=O)c1ccc(NCC#Cc2cc3c(NC4CCN(CC(O)COC)CC4)cccc3n2CC(F)(F)F)c(OCCC#N)c1 (stereo not shown) [Compound 659A, 3-(2-cyanoethoxy)-4-{[3-(4-{[1-(2-hydroxy-3-methoxypropyl)piperidin-4-yl]amino}-1-(2,2,2-trifluoroethyl)-1H-indol-2-yl)prop-2-yn-1-yl]amino}-N-methylbenzamide] | + (+ = 0 μM ≤ SC150 < 0.05 μM)
COc1cc(S(C)(=O)=O)ccc1NCC#Cc1cc2c(NC(=O)NC3CCN(CCO)CC3)cccc2n1CC(F)(F)F [Compound 17A, 1-[1-(2-hydroxyethyl)piperidin-4-yl]-3-(2-{3-[(4-methanesulfonyl-2-methoxyphenyl)amino]prop-1-yn-1-yl}-1-(2,2,2-trifluoroethyl)-1H-indol-4-yl)urea] | ++++ (++++ = 0.2 μM ≤ SC150 < 1 μM)
COc1cc(S(C)(=O)=O)ccc1NCC#Cc1cc2c(NC3CCN(C4CCOCC4)C3)cccc2n1CC(F)(F)F (stereo not shown) [Compound 458A, 2-{3-[(4-methanesulfonyl-2-methoxyphenyl)amino]prop-1-yn-1-yl}-N-[1-(oxan-4-yl)pyrrolidin-3-yl]-1-(2,2,2-trifluoroethyl)-1H-indol-4-amine] | + (+ = 0 μM ≤ SC150 < 0.05 μM)
COc1cc(-c2ncco2)ccc1NCC#Cc1cc2c(NC3CCN(C)CC3)cccc2n1CC(F)(F)F [Compound 506A, 2-(3-{[2-methoxy-4-(1,3-oxazol-2-yl)phenyl]amino}prop-1-yn-1-yl)-N-(1-methylpiperidin-4-yl)-1-(2,2,2-trifluoroethyl)-1H-indol-4-amine] | + (+ = 0 μM ≤ SC150 < 0.05 μM)
CNC(=O)c1cc(OC)c(NCC#Cc2cc3c(N[C@@H]4CCN(C)C[C@@H]4F)cccc3n2CC(F)(F)F)cc1F [Compound 826A, 2-fluoro-4-{[3-(4-{[(3S,4R)-3-fluoro-1-methylpiperidin-4-yl]amino}-1-(2,2,2-trifluoroethyl)-1H-indol-2-yl)prop-2-yn-1-yl]amino}-5-methoxy-N-methylbenzamide] | + (+ = 0 μM ≤ SC150 < 0.05 μM)
COCC(O)CNC(=O)c1ccc(NCC#Cc2cc3c(N[C@@H]4CCN(C)C[C@@H]4F)cccc3n2CC(F)(F)F)c(OC)c1 (stereo partly shown) [Compound 960A] | + (+ = 0 μM ≤ SC150 < 0.05 μM)
COCCn1cc(-c2ccc(NCC#Cc3cc4c(NC5CCN(C)CC5)cccc4n3CC(F)(F)F)c(OC)c2)cn1 [Compound 510A, 2-[3-({2-methoxy-4-[1-(2-methoxyethyl)-1H-pyrazol-4-yl]phenyl}amino)prop-1-yn-1-yl]-N-(1-methylpiperidin-4-yl)-1-(2,2,2-trifluoroethyl)-1H-indol-4-amine] | + (+ = 0 μM ≤ SC150 < 0.05 μM)
